{
  "source": "patent US6979676B2",
  "about": "(priority 2002, dated 2005)",
  "key": {"[1]": {"test": "Solubility of Formula I in various vehicles", "assay_type": "physicochemical", "conditions": "thermodynamic from solid, room temperature after 1 day"}, "[2]": {"test": "Stability of Formula I in PG/water or PG/buffers (HPLC purity, initial point vs 80° C./4 days)", "assay_type": "physicochemical", "conditions": "5 mg/mL, initial point and 80° C./4 days"}, "[3]": {"test": "Stability of Formula I in various PG/buffer solutions (HPLC purity, initial point vs 80° C./8 days)", "assay_type": "physicochemical", "conditions": "initial point and 80° C./8 days"}, "[4]": {"test": "physchem"}, "[5]": {"test": "Degradation rate of Formula I in various pH conditions (T90 at 80° C.)", "assay_type": "physicochemical"}, "[6]": {"conditions": "50% PG/75 mM citrate buffer (pH = 4)"}},
  "note": "Read-outs that look alike come from different tables or passages of the source.",
  "data": [
    {"smiles": "O=C1c2c(c3c4ccc(O)cc4n(C4OC(CO)C(O)C(O)C4O)c3c3[nH]c4cc(O)ccc4c23)C(=O)N1NC(CO)CO", "note": "[Formula I, 12,13-dihydro-2,10-dihydroxy-6-N-(1-hydroxymethyl-2-hydroxyethylamino)-13-(β-D-glucopyranosyl)-5H-indolo[2,3-α]pyrrolo[3,4-c]carbazole-5,7(6H)-dione]", "values": [
      {"measurement": "Stability of Formula I (purity by HPLC)", "setting": "1 month, 0.15 mg/mL", "result": "−0.68", "unit": "%"},
      {"measurement": "Stability of Formula I (purity by HPLC)", "setting": "50% PEG 400/water, 10 mg/mL, initial point and 40° C./1 month", "result": "−2.9", "unit": "%"},
      {"measurement": "Stability of Formula I (purity by HPLC)", "setting": "50% PG/water, 10 mg/mL, initial point and 40° C./1 month", "result": "−0.03", "unit": "%"},
      {"measurement": "solubility at 1 day", "setting": "[1]; aqueous buffer, 50 mM citrate buffer (pH = 3)", "result": 0.92, "unit": "mg/mL"},
      {"measurement": "solubility at 1 day", "setting": "[1]; aqueous buffer, 50 mM citrate buffer (pH = 4)", "result": 0.81, "unit": "mg/mL"},
      {"measurement": "solubility at 1 day", "setting": "[1]; aqueous buffer, 50 mM citrate buffer (pH = 5)", "result": 0.72, "unit": "mg/mL"},
      {"measurement": "solubility at 1 day", "setting": "[1]; aqueous buffer, 50 mM citrate buffer (pH = 6)", "result": 0.72, "unit": "mg/mL"},
      {"measurement": "solubility at 1 day", "setting": "[1]; aqueous buffer, 50 mM citrate buffer (pH = 7)", "result": 0.67, "unit": "mg/mL"},
      {"measurement": "solubility at 1 day", "setting": "[1]; aqueous with cosolvent or surfactant or cyclodextrin, 25% PEG 400/water (w/v)", "result": 16, "unit": "mg/mL"},
      {"measurement": "solubility at 1 day", "setting": "[1]; aqueous with cosolvent or surfactant or cyclodextrin, 25% PG/water (w/v)", "result": 4, "unit": "mg/mL"},
      {"measurement": "solubility at 1 day", "setting": "[1]; aqueous with cosolvent or surfactant or cyclodextrin, 40% PG/water (w/v)", "result": 12, "unit": "mg/mL"},
      {"measurement": "solubility at 1 day", "setting": "[1]; aqueous with cosolvent or surfactant or cyclodextrin, 50% PEG 400/water (w/v)", "result": 25, "unit": "mg/mL"},
      {"measurement": "solubility at 1 day", "setting": "[1]; aqueous with cosolvent or surfactant or cyclodextrin, 50% PG/50 mM citrate buffer (pH = 3)", "result": 24, "unit": "mg/mL"},
      {"measurement": "solubility at 1 day", "setting": "[1]; aqueous with cosolvent or surfactant or cyclodextrin, 50% PG/50 mM citrate buffer (pH = 4)", "result": 25, "unit": "mg/mL"},
      {"measurement": "solubility at 1 day", "setting": "[1]; aqueous with cosolvent or surfactant or cyclodextrin, 50% PG/50 mM citrate buffer (pH = 5)", "result": 26, "unit": "mg/mL"},
      {"measurement": "solubility at 1 day", "setting": "[1]; aqueous with cosolvent or surfactant or cyclodextrin, 50% PG/50 mM citrate buffer (pH = 6)", "result": 27, "unit": "mg/mL"},
      {"measurement": "solubility at 1 day", "setting": "[1]; aqueous with cosolvent or surfactant or cyclodextrin, 50% PG/50 mM citrate buffer (pH = 7)", "result": 27, "unit": "mg/mL"},
      {"measurement": "solubility at 1 day", "setting": "[1]; aqueous with cosolvent or surfactant or cyclodextrin, 50% PG/water (w/v)", "result": 24, "unit": "mg/mL"},
      {"measurement": "solubility at 1 day", "setting": "[1]; aqueous with cosolvent or surfactant or cyclodextrin, 75% PEG 400/water (w/v)", "result": 24, "unit": "mg/mL"},
      {"measurement": "solubility at 1 day", "setting": "[1]; aqueous with cosolvent or surfactant or cyclodextrin, 75% PG/water (w/v)", "result": 45, "unit": "mg/mL"},
      {"measurement": "solubility at 1 day", "setting": "[1]; organic solvent or mixture, 100% PEG 400", "result": "< 0.67", "unit": "mg/mL"},
      {"measurement": "solubility at 1 day", "setting": "[1]; organic solvent or mixture, 100% PG", "result": 1.2, "unit": "mg/mL"},
      {"measurement": "solubility at 1 day", "setting": "[1]; saline or isotonic, 5% glucose/water", "result": 0.6, "unit": "mg/mL"},
      {"measurement": "solubility at 1 day", "setting": "[1]; water", "result": 0.62, "unit": "mg/mL"},
      {"measurement": "Stability of Formula I (purity by HPLC)", "setting": "[2]; 50% PG/75 mM citrate buffer (pH = 3)", "result": "−2.4", "unit": "%"},
      {"measurement": "Stability of Formula I (purity by HPLC)", "setting": "[2]; [6]", "result": "−2.2", "unit": "%"},
      {"measurement": "Stability of Formula I (purity by HPLC)", "setting": "[2]; 50% PG/75 mM citrate buffer (pH = 5)", "result": "−2.9", "unit": "%"},
      {"measurement": "Stability of Formula I (purity by HPLC)", "setting": "[2]; 50% PG/water", "result": "−9.3", "unit": "%"},
      {"measurement": "Stability of Formula I (purity by HPLC)", "setting": "[3]; 50% PG/50 mM citrate buffer (pH = 4)", "result": "−5.50", "unit": "%"},
      {"measurement": "Stability of Formula I (purity by HPLC)", "setting": "[3]; 50% PG/50 mM tartrate buffer (pH = 4)", "result": "−6.12", "unit": "%"},
      {"measurement": "Stability of Formula I (purity by HPLC)", "setting": "[3]; [6]", "result": "−6.49", "unit": "%"},
      {"measurement": "Stability of Formula I (purity by HPLC)", "setting": "[3]; 50% PG/water", "result": "−30.68", "unit": "%"},
      {"measurement": "solubility", "setting": "[4]; aqueous with cosolvent or surfactant or cyclodextrin", "result": 10000, "unit": "µg/mL"},
      {"measurement": "solubility", "setting": "[4]; saline or isotonic", "result": 150, "unit": "µg/mL"},
      {"measurement": "T90 (time required to degrade Formula I to 90% of the initial concentration)", "setting": "[5]; pH 2", "result": 0.9, "unit": "days"},
      {"measurement": "T90 (time required to degrade Formula I to 90% of the initial concentration)", "setting": "[5]; pH 3, extrapolated data", "result": 19, "unit": "days"},
      {"measurement": "T90 (time required to degrade Formula I to 90% of the initial concentration)", "setting": "[5]; pH 4, extrapolated data", "result": 89, "unit": "days"},
      {"measurement": "T90 (time required to degrade Formula I to 90% of the initial concentration)", "setting": "[5]; pH 5, extrapolated data", "result": 7.8, "unit": "days"},
      {"measurement": "T90 (time required to degrade Formula I to 90% of the initial concentration)", "setting": "[5]; pH 6", "result": 2.3, "unit": "days"},
      {"measurement": "T90 (time required to degrade Formula I to 90% of the initial concentration)", "setting": "[5]; pH 7", "result": 0.233, "unit": "days"},
      {"measurement": "T90 (time required to degrade Formula I to 90% of the initial concentration)", "setting": "[5]; pH 8", "result": 0.0194, "unit": "days"},
      {"measurement": "T90 (time required to degrade Formula I to 90% of the initial concentration)", "setting": "[5]; pH 9", "result": 0.00486, "unit": "days"},
      {"measurement": "T90 (time required to degrade Formula I to 90% of the initial concentration)", "setting": "[5]; pH 10", "result": 0.000833, "unit": "days"}
    ]}
  ]
}
